This is an account of results in patent publication US11730732B2, “Oral suspension of temozolomide” (Orphelia Pharma, priority 2018, dated 2023).

The data set is described as follows: Particle size of temozolomide drug substance entering the composition. It is filed as physicochemical. The source says: Characteristically, the composition of temozolomide according to the invention further contains at least one agent controlling the solid state of temozolomide in suspension. Indeed and during the development of the compositions of the invention, the Applicants observed an erratic recrystallisation of temozolomide after reconstitution of some suspensions with water. […] The recrystallisation triggered dose inhomogeneity within the suspensions, with large crystals settling down the bottom of the bottle or container. Furthermore, large crystals tended to clog the syringe for oral administration. This recrystallisation phenomenon was also observed in compositions containing povidone, the excipient used in the hospital-compounded formulations developed by Trissel et al. and Ambados et al.

Consider `Cn1nnc2c(C(N)=O)ncn2c1=O` [temozolomide, 3-methyl-4-oxoimidazo[5,1-d][1,2,3,5]tetrazine-8-carboxamide], for which the “particle size d90” value was below 100 μm.
